The target of one experiment is T1, CDK9/CycT1 (Homo sapiens, UniProt P50750).
T1 construct: Recombinant full-length His-tagged human CDK9 and CycT1; His; purchased Life Technologies PV4131; host or cells: insect cells
Description: CDK9/CycT1 high ATP kinase assay (TR-FRET, 2 mM ATP). Format: biochemical. Conditions: for IC50: 2 mM ATP, Method 1b, lower limit for IC50s about 1-2 nM; for Selectivity high ATP CDK9 over high ATP CDK2: IC50 (high ATP CDK2)/IC50 (high ATP CDK9): ratio from Methods 1b and 2b, minimal values for IC50s near the assay limit. How it is done: 1b. CDK9/CycT1 High ATP Kinase Assay
CDK9/CycT1-inhibitory activity of compounds of the present invention at a high ATP concentration after preincubation of enzyme and test compounds was quantified employing the CDK9/CycT1 TR-FRET assay as described in the following paragraphs.
Recombinant full-length His-tagged human CDK9 and CycT1, expressed in insect cells and purified by Ni-NTA affinity chromatography, were purchased from Life Technologies (Cat. No PV4131). As substrate for the kinase reaction biotinylated peptide biotin-Ttds-YISPLKSPYKISEG (C-terminus in amide form) was used which can be purchased e.g. form the company JERINI peptide technologies (Berlin, Germany).
(§1) For the assay 50 nl of a 100 fold concentrated solution of the test compound in DMSO was pipetted into either a black low volume 384 well microtiter plate or a black 1536 well microtiter plate (both Greiner Bio-One, Frickenhausen, Germany), 2 μl of a solution of CDK9/CycT1 in aqueous assay buffer [50 mM Tris/HCl pH 8.0, 10 mM MgCl2, 1.0 mM dithiothreitol, 0.1 mM sodium ortho-vanadate, 0.01% (v/v) Nonidet-P40 (Sigma)] were added and the mixture was incubated for 15 min at 22° C. to allow pre-binding of the test compounds to the enzyme before the start of the kinase reaction. […] The concentration of CDK9/CycT1 was adjusted depending of the activity of the enzyme lot and was chosen appropriate to have the assay in the linear range, typical concentrations were in the range of 0.5 μg/ml. The reaction was stopped by the addition of 3 μl of a solution of TR-FRET detection reagents (0.33 μM streptavidine-XL665 [Cisbio Bioassays, Codolet, France] and 1.67 nM anti-RB(pSer807/pSer811)-antibody from BD Pharmingen [#558389] and 2 nM LANCE EU-W1024 labeled anti-mouse IgG antibody [Perkin-Elmer, product no. AD0077]) in an aqueous EDTA-solution (167 mM EDTA, 0.2% (w/v) bovine serum albumin in 100 mM HEPES pH 7.5).
(§2) The resulting mixture was incubated 1 h at 22° C. to allow the formation of complex between the phosphorylated biotinylated peptide and the detection reagents. Subsequently the amount of phosphorylated substrate was evaluated by measurement of the resonance energy transfer from the Eu-chelate to the streptavidine-XL. Therefore, the fluorescence emissions at 620 nm and 665 nm after excitation at 350 nm was measured in a TR-FRET reader, e.g. a Pherastar (BMG Labtechnologies, Offenburg, Germany) or a Viewlux (Perkin-Elmer). The ratio of the emissions at 665 nm and at […] was taken as the measure for the amount of phosphorylated substrate. The data were normalised (enzyme reaction without inhibitor=0% inhibition, all other assay components but no enzyme=100% inhibition).
A general note: Time-resolved FRET reads energy transfer from a long-lived donor to a nearby acceptor.

A further experiment addresses T2, CDK2/CycE (Homo sapiens, UniProt P24941).
T2 construct: GST; purchased ProQinase GmbH (Freiburg, Germany); host or cells: insect cells (Sf9)
Description: CDK2/CycE high ATP kinase assay (TR-FRET, 2 mM ATP). It counts as biochemical. Conditions: Method 2b. How it is done:
2b. CDK2/CycE High ATP Kinase Assay
CDK2/CycE-inhibitory activity of compounds of the present invention at 2 mM adenosine-tri-phosphate (ATP) was quantified employing the CDK2/CycE TR-FRET (TR-FRET=Time Resolved Fluorescence Energy Transfer) assay as described in the following paragraphs.
Recombinant fusion proteins of GST and human CDK2 and of GST and human CycE, expressed in insect cells (Sf9) and purified by Glutathion-Sepharose affinity chromatography, were purchase from ProQinase GmbH (Freiburg, Germany). As substrate for the kinase reaction biotinylated peptide biotin-Ttds-YISPLKSPYKISEG (C-terminus in amid form) was used which can be purchased e.g. form the company JERINI peptide technologies (Berlin, Germany).
as §1, with “CDK2/CycE” for “CDK9/CycT1”, “about 10 ng/ml.” for “in the range of 0.5 μg/ml.”, “(0.333” for “(0.33”, “AD0077, as an alternative a Terbium-cryptate-labeled anti-mouse IgG antibody from Cisbio Bioassays can be used])” for “AD0077])”
as §2

T1 sequence (P50750 whole entry): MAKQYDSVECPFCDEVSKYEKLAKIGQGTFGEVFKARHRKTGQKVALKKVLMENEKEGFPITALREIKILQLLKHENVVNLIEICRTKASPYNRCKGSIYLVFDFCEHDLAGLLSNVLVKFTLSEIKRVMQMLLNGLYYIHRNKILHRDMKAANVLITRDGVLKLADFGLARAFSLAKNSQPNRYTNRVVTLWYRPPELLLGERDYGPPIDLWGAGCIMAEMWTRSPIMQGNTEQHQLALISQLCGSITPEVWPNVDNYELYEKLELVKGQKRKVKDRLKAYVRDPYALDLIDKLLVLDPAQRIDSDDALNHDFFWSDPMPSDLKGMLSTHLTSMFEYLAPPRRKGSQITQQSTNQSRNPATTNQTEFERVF
T1 sequence (O60563 whole entry partner): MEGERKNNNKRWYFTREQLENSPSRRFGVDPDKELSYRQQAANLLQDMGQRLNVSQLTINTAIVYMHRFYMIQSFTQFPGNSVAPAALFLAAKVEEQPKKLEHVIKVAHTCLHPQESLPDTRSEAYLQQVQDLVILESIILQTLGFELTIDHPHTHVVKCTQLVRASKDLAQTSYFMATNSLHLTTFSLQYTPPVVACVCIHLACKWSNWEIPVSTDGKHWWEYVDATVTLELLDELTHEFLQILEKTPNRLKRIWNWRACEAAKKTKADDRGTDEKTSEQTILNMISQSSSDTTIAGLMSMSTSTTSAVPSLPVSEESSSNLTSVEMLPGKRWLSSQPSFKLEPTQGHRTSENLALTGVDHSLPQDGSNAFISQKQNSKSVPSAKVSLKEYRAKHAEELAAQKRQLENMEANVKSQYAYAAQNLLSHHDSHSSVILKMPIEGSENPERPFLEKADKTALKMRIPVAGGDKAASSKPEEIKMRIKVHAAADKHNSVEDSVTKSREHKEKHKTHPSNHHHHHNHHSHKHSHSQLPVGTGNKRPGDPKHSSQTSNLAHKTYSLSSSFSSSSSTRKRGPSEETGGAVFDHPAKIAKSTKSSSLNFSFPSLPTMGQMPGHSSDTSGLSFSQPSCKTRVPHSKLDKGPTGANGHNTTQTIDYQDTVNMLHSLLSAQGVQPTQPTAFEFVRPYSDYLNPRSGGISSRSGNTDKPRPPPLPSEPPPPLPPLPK

In general, IC50 refers to the concentration that gives 50% inhibition. Read a high IC50 as a need for much substance. For the molecule `CSCc1cc2nc(c1)OC(C)CCCOc1cc(ccc1F)-c1cc(ncc1F)N2` (single isomer, unassigned) [Example 13, 3,20-difluoro-14-methyl-10-[(methylsulfanyl)methyl]-13,18-dioxa-5,7,24-triazatetracyclo[17.3.1.1^2,6.1^8,12]pentacosa-1(23),2(25),3,5,8(24),9,11,19,21-nonaene], at CDK9/CycT1, it took 4 nM to reach half-maximal inhibition (IC50) and the “Selectivity high ATP CDK9 over high ATP CDK2: IC50 (high ATP CDK2)/IC50 (high ATP CDK9)” value (“Selectivity high ATP CDK9” for short) worked out at 178. This molecule gave an IC50 against CDK2/CycE of 711 nM.

As to `CSCc1cc2nc(c1)OC(C)CCCCCOc1cc(ccc1F)-c1cc(ncc1F)N2` (single isomer, unassigned) [Example 24, 3,22-difluoro-14-methyl-10-[(methylsulfanyl)methyl]-13,20-dioxa-5,7,26-triazatetracyclo[19.3.1.1^2,6.1^8,12]heptacosa-1(25),2(27),3,5,8(26),9,11,21,23-nonaene], the IC50 at CDK9/CycT1 was 68 nM; at CDK2/CycE, greater than 20000 nM. For the same molecule, the “Selectivity high ATP CDK9” value at CDK9/CycT1 is greater than 294.

With `CSCc1cc2nc(c1)OC(C)CCCCCOc1cc(ccc1F)-c1cc(ncc1F)N2` (single isomer, unassigned) [Example 25, 3,22-difluoro-14-methyl-10-[(methylsulfanyl)methyl]-13,20-dioxa-5,7,26-triazatetracyclo[19.3.1.1^2,6.1^8,12]heptacosa-1(25),2(27),3,5,8(26),9,11,21,23-nonaene], the figures for the IC50 against CDK9/CycT1 and at CDK2/CycE were 93 nM and greater than 20000 nM, respectively. Also, the “Selectivity high ATP CDK9” value on CDK9/CycT1 is listed as greater than 215.

Regarding `CSCc1cc2nc(c1)OC(C)CCCCOc1cc(ccc1F)-c1cc(ncc1F)N2` (racemic) [Example 18, (rac)-3,21-difluoro-14-methyl-10-[(methylsulfanyl)methyl]-13,19-dioxa-5,7,25-triazatetracyclo[18.3.1.1^2,6.1^8,12]hexacosa-1(24),2(26),3,5,8(25),9,11,20,22-nonaene], at CDK9/CycT1, the IC50 is 32 nM and the “Selectivity high ATP CDK9” value was greater than 625. Also, the IC50 against CDK2/CycE was greater than 20000 nM.

On to `CSCc1cc2nc(c1)OC(C)CCCCOc1cc(ccc1F)-c1cc(ncc1F)N2` (single isomer, unassigned) [Example 19, 3,21-difluoro-14-methyl-10-[(methylsulfanyl)methyl]-13,19-dioxa-5,7,25-triazatetracyclo[18.3.1.1^2,6.1^8,12]hexacosa-1(24),2(26),3,5,8(25),9,11,20,22-nonaene], for which, at CDK9/CycT1, the IC50 was 138 nM and the “Selectivity high ATP CDK9” value is reported as greater than 145. The molecule further came in with an IC50 at CDK2/CycE greater than 20000 nM.

In the case of `CSCc1cc2nc(c1)OC(C)CCCCOc1cc(ccc1F)-c1cc(ncc1F)N2` (single isomer, unassigned) [Example 20, 3,21-difluoro-14-methyl-10-[(methylsulfanyl)methyl]-13,19-dioxa-5,7,25-triazatetracyclo[18.3.1.1^2,6.1^8,12]hexacosa-1(24),2(26),3,5,8(25),9,11,20,22-nonaene], on CDK9/CycT1, the IC50 was 23 nM and the “Selectivity high ATP CDK9” value was determined as 548. Moreover, the IC50 against CDK2/CycE worked out at 12600 nM.

For `CSCc1cc2nc(c1)OC(C)CCCOc1cc(ccc1F)-c1cc(ncc1F)N2` (single isomer, unassigned) [Example 12, 3,20-difluoro-14-methyl-10-[(methylsulfanyl)methyl]-13,18-dioxa-5,7,24-triazatetracyclo[17.3.1.1^2,6.1^8,12]pentacosa-1(23),2(25),3,5,8(24),9,11,19,21-nonaene], the IC50 amounted to 4 nM against CDK9/CycT1 and 6450 nM on CDK2/CycE. Also, the “Selectivity high ATP CDK9” value at CDK9/CycT1 is 1613.

Take `CSCc1cc2nc(c1)OC(C)CCCCCOc1cc(ccc1F)-c1cc(ncc1F)N2` (racemic) [Example 23, (rac)-3,22-difluoro-14-methyl-10-[(methylsulfanyl)methyl]-13,20-dioxa-5,7,26-triazatetracyclo[19.3.1.1^2,6.1^8,12]heptacosa-1(25),2(27),3,5,8(26),9,11,21,23-nonaene]: at CDK9/CycT1, the IC50 was 67 nM and the “Selectivity high ATP CDK9” value was greater than 298. This molecule also showed an IC50 on CDK2/CycE greater than 20000 nM.
